Measured values as given in patent publication US20100298141A1, “SUBSTITUTED PYRIDINE N-OXIDE HERBICIDES” (E. I. DU PONT DE NEMOURS AND COMPANY, priority 2007, published 2010).

Tests used:
[1] = system: common (oilseed) sunflower; test: Test C pre-/postemergence test; type: in vivo, Helianthus annuus; conditions: for Sunflower plant response rating: preemergence, scale 0 (no effect) to 100 (complete control)
Summary of the method: (§1)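 Compounds in a non-phytotoxic solvent with surfactant applied preemergence to seeded pots and, at the same time, postemergence to plants 2–18 cm tall (1- to 4-leaf stage). Paddy tests: pots flooded to 3 cm, compound applied into the water, depth held throughout.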

[2] = system: Italian ryegrass; test: Test C pre-/postemergence test; type: in vivo, Lolium multiflorum
Summary of the method: as §1

[3] = system: blackgrass; test: Test C pre-/postemergence test; type: in vivo, Alopecurus myosuroides
Summary of the method: as §1

[4] = system: pigweed; test: Test C pre-/postemergence test; type: in vivo, Amaranthus retroflexus
Summary of the method: as §1

[5] = system: corn; test: Test C pre-/postemergence test; type: in vivo, Zea mays
Summary of the method: as §1

[6] = system: yellow nutsedge; test: Test C pre-/postemergence test; type: in vivo, Cyperus esculentus
Summary of the method: as §1

[7] = system: kochia; test: Test C pre-/postemergence test; type: in vivo, Kochia scoparia
Summary of the method: as §1

[8] = system: green foxtail; test: Test C pre-/postemergence test; type: in vivo, Setaria viridis
Summary of the method: as §1

[9] = system: soybean; test: Test C pre-/postemergence test; type: in vivo, Glycine max
Summary of the method: as §1

[10] = system: barnyardgrass; test: Test A pre-/postemergence greenhouse test; type: in vivo, Echinochloa crus-galli; conditions: for Barnyardgrass plant response rating: 0 to 100 scale
Summary of the method: (§2)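 Visual injury ratings against untreated controls, taken roughly ten days after treatment in greenhouse. Plants were sprayed postemergence at one- to two-leaf stage (2–10 cm tall); at the same time, seeded loam/sand soil received a directed preemergence spray. Formulation: non-phytotoxic solvent mixture with surfactant.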

[11] = system: morningglory; test: Test C pre-/postemergence test; type: in vivo, Ipomoea coccinea
Summary of the method: as §1

[12] = system: morningglory; test: Test A pre-/postemergence greenhouse test; type: in vivo, Ipomoea spp.; conditions: for Morningglory plant response rating: 0 to 100 scale
Summary of the method: as §2

[13] = system: cocklebur; test: Test C pre-/postemergence test; type: in vivo, Xanthium strumarium
Summary of the method: as §1

[14] = system: wheat; test: Test C pre-/postemergence test; type: in vivo, Triticum aestivum; conditions: for Wheat plant response rating: preemergence, scale 0 (no effect) to 100 (complete control)
Summary of the method: as §1

[15] = system: umbrella sedge; test: Test C flooded paddy test; type: in vivo, Cyperus difformis; conditions: Flood
Summary of the method: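 Ratings were visual and made relative to untreated controls after 13 to 15 greenhouse days.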

[16] = system: woolly cupgrass; test: Test C pre-/postemergence test; type: in vivo, Eriochloa villosa
Summary of the method: as §1

[17] = system: crabgrass; test: Test C pre-/postemergence test; type: in vivo, Digitaria sanguinalis
Summary of the method: as §1

[18] = 31 g ai/ha, Preemergence, scale 0 to 100
[19] = 62 g ai/ha, preemergence, scale 0 (no effect) to 100 (complete control)
[20] = preemergence, 125 g ai/ha, scale 0 (no effect) to 100 (complete control)
[21] = Postemergence, 125 g ai/ha, 0 is no effect, 100 is complete control
[22] = Postemergence, 500 g ai/ha, 0 is no effect, 100 is complete control
[23] = Preemergence, 125 g ai/ha, 0 no effect, 100 complete control
[24] = Preemergence, 500 g ai/ha, 0 to 100 scale where 0 is no effect and 100 is complete control

Cc1cc[n+]([O-])c(S(=O)(=O)C(C)c2c(C(F)(F)F)nn(C)c2Cl)c1 (racemic) [Compound 14]
5: Soybean plant response rating [9, 20] | Morningglory plant response rating [11, 18]
10: Morningglory plant response rating [12, 23] | Plant response rating (0 to 100), Cocklebur ([13]; Preemergence, 250 g ai/ha) | Cocklebur plant response rating [13, 20]
98: Sunflower plant response rating ([1]; 125 g ai/ha) | Nutsedge, Yellow plant response rating [6, 20] | Morningglory plant response rating [11, 19]
100: Plant response rating (0 to 100), Sunflower ([1]; Preemergence, 250 g ai/ha) | Plant response rating (0 to 100), Ryegrass, Italian ([2]; Preemergence, 250 g ai/ha) | Ryegrass, Italian plant response rating [2, 20] | Pigweed plant response rating [4, 18] | Pigweed plant response rating [4, 19] | Plant response rating (0 to 100), Pigweed ([4]; Preemergence, 250 g ai/ha) | Pigweed plant response rating [4, 20] | Plant response rating (0 to 100), Nutsedge, Yellow ([6]; Preemergence, 250 g ai/ha) | Plant response rating (0 to 100), Kochia ([7]; Preemergence, 250 g ai/ha) | Kochia plant response rating [7, 20] | Foxtail, Green plant response rating [8, 19] | Plant response rating (0 to 100), Foxtail, Green ([8]; Preemergence, 250 g ai/ha) | Foxtail, Green plant response rating [8, 20] | Plant response rating, Barnyardgrass [10, 24] | Plant response rating (0 to 100), Morningglory ([11]; Preemergence, 250 g ai/ha) | Morningglory plant response rating [11, 20] | Plant response rating, Morningglory [12, 24] | Plant response rating, Sedge, Umbrella ([15]; 125 g ai/ha, scale 0 to 100, 0 no effect, 100 complete control, 13 to 15 days) | Plant response rating, Sedge, Umbrella ([15]; 250 g ai/ha, scale 0 to 100 (0 no effect, 100 complete control)) | Plant response rating (0 to 100), Cupgrass, Woolly ([16]; Preemergence, 250 g ai/ha) | Crabgrass, Large plant response rating [17, 18] | Crabgrass, Large plant response rating [17, 19] | Plant response rating (0 to 100), Crabgrass, Large ([17]; Preemergence, 250 g ai/ha) | Crabgrass, Large plant response rating [17, 20]
85: Sunflower plant response rating ([1]; 62 g ai/ha) | Plant response rating (0 to 100), Soybean ([9]; Preemergence, 250 g ai/ha) | Plant response rating, Sedge, Umbrella ([15]; 62 g ai/ha, scale 0 to 100, 0 no effect, 100 complete control, 13 to 15 days) | Cupgrass, Woolly plant response rating [16, 18] | Cupgrass, Woolly plant response rating [16, 19]
75: Plant response rating, Sedge, Umbrella ([15]; 31 g ai/ha, scale 0 to 100 (0 no effect, 100 complete control))
0: Corn plant response rating [5, 18] | Kochia plant response rating [7, 18] | Kochia plant response rating [7, 19] | Soybean plant response rating [9, 18] | Soybean plant response rating [9, 19] | Cocklebur plant response rating [13, 18] | Cocklebur plant response rating [13, 19]
60: Corn plant response rating [5, 20] | Barnyardgrass plant response rating [10, 22]
70: Nutsedge, Yellow plant response rating [6, 19]
30: Barnyardgrass plant response rating [10, 21] | Morningglory plant response rating [12, 21]
20: Ryegrass, Italian plant response rating [2, 18] | Corn plant response rating [5, 19] | Wheat plant response rating ([14]; 62 g ai/ha)
40: Blackgrass plant response rating [3, 18] | Nutsedge, Yellow plant response rating [6, 18]
80: Blackgrass plant response rating [3, 19] | Plant response rating (0 to 100), Blackgrass ([3]; Preemergence, 250 g ai/ha) | Plant response rating (0 to 100), Corn ([5]; Preemergence, 250 g ai/ha) | Barnyardgrass plant response rating [10, 23] | Plant response rating (0 to 100), Wheat ([14]; Preemergence, 250 g ai/ha)
50: Morningglory plant response rating [12, 22] | Wheat plant response rating ([14]; 125 g ai/ha)
90: Foxtail, Green plant response rating [8, 18] | Cupgrass, Woolly plant response rating [16, 20]
55: Ryegrass, Italian plant response rating [2, 19]
